Test results taken from article PMC6152040, “Isolation and Characterization of Aphidicolin Derivatives from Tolypocladium inflatum” (Molecules : A Journal of Synthetic Chemistry and Natural …, 2017).

Legend:
Assay type in all cases: cell-based
[1] = system: A549 lung adenocarcinoma cells; test: MTS cytotoxicity assay, A549; conditions: Homo sapiens, MTS method, 72 h incubation
Experimental: (§1) Compounds 1, 4–8 were tested for the cytotoxicities against A549, CNE1-MP1, A375, and MCF-7 human cancer cell lines using MTS method.
(§2) Cytotoxic activity was tested against four human cancer cell lines (A549, CNE1-MP1, A375, and MCF-7) using the MTS method. For the MTS assay, the CellTiter 96® AQueous One Solution Reagent (Promega, Madison, WI, USA) was used following the manufacturer’s instruction. In a 96-well plate, each well was plated with 2–5 × 10^3 cells (It depends on the cell multiplication rate). […] The plate was incubated for 72 h at 37 °C in a humidified, 5% CO2 atmosphere. Proliferation assessed by adding 20 μL of MTS to each well in dark followed by a 90 min incubation at 37 °C. The assay plate was read at 490 nm using a microplate reader (Bio-Rad, Hercules, CA, USA). The assay was run in triplicate.

[2] = system: CNE1-LMP1 stable oncoprotein LMP1 integrated nasopharyngeal carcinoma cells; test: MTS cytotoxicity assay, CNE1-LMP1; conditions: Homo sapiens, MTS method, 72 h incubation
Experimental: as §1, §2

[3] = system: A375 malignant melanoma cells; test: MTS cytotoxicity assay, A375; conditions: Homo sapiens, A-375, MTS method, 72 h incubation
Experimental: as §1, §2

[4] = system: MCF-7 breast cancer cells; test: MTS cytotoxicity assay, MCF-7; conditions: Homo sapiens, MCF7, MTS method, 72 h incubation
Experimental: as §1, §2

[5] = system: HaCaT (human keratinocyte) cells; test: MTS cytotoxicity assay, HaCaT negative control cells; conditions: MTS method, 72 h incubation

Structure (SMILES): CC12COC(c3ccccc3)OC1CCC1(C)C2CCC2CC3CC21CCC3(O)CO (stereo not drawn) [Compound 1, Inflatin G]
- IC50 [1]: 68.7 µM
- IC50 [2]: 35.4 µM
- IC50 [3]: 39.8 µM
- IC50 [4]: 35.2 µM
- IC50 [5]: 42.6 µM

Structure (SMILES): C[C@@]1(CO)[C@H](O)CC[C@@]2(C)[C@H]1CC[C@H]1C[C@@H]3C[C@@]12CC[C@]3(O)CO [Compound 4, aphidicolin]
- IC50 [1]: 16.2 µM
- IC50 [2]: 3.12 µM
- IC50 [3]: 37.3 µM
- IC50 [4]: 42.3 µM
- IC50 [5]: 10.4 µM

Structure (SMILES): CC(=O)OC[C@@]1(O)CC[C@]23C[C@H]1C[C@@H]2CC[C@H]1[C@](C)(CO)[C@H](O)CC[C@@]13C [Compound 5, aphidicolin-17-monoacetate]
- IC50 [1]: 5.2 µM
- IC50 [2]: 4 µM
- IC50 [3]: 40.5 µM
- IC50 [4]: 66.2 µM
- IC50 [5]: 8 µM

Structure (SMILES): COc1cc(=O)oc(C(C)[C@H](C)O)c1C (stereo partly drawn) [Compound 6, gulypyrone A]
- IC50 [1]: > 100 µM
- IC50 [2]: > 100 µM
- IC50 [3]: > 100 µM
- IC50 [4]: > 100 µM
- IC50 [5]: > 100 µM

Structure (SMILES): C=C[C@H]1C[C@@H](C)C[C@@H](C)[C@@H]1c1c(O)ccn(O)c1=O [Compound 7 and 8, pyridoxatin rotamers A (7) and B (8)]
- IC50 [1]: 0.44 µM
- IC50 [2]: 0.2 µM
- IC50 [3]: 0.1 µM
- IC50 [4]: 0.17 µM
- IC50 [5]: > 47.5 µM

Structure (SMILES): CC(=O)O[C@H]1C(=O)[C@@]2(C)[C@H]([C@H](OC(=O)c3ccccc3)[C@]3(O)C[C@H](OC(=O)[C@H](O)[C@@H](NC(=O)c4ccccc4)c4ccccc4)C(C)=C1C3(C)C)[C@]1(OC(C)=O)CO[C@@H]1C[C@@H]2O [paclitaxel, reference compound]
- IC50 [1]: 0.03 µM
- IC50 [2]: 0.0042 µM
- IC50 [3]: 0.0089 µM
- IC50 [4]: 0.014 µM
- IC50 [5]: 0.024 µM
